In data set [1] the test system is acrylamide intoxicated MAG−/− mice. Put plainly: Acrylamide-induced axonal degeneration in MAG−/− mice. The class given is in vivo. As to conditions: for severe gait instability / axonal swelling, beading and segmentation of Aβ fibers in the skin / neuromuscular junction morphology: daily intraperitoneal injection; for severe gait instability: acrylamide for 10 days; for axonal swelling, beading and segmentation of Aβ fibers in the skin / neuromuscular junction morphology: acrylamide, FIG. 2E; for change in amplitudes of CMAP: electrophysiological testing, FIG. 2D. The text has this:
Furthermore, the RGD peptides can also prevent axonal and/or neuronal degeneration in vivo. See Example 3. Administration of acrylamide, a well characterized toxin, causes axonal “dying back” or degeneration without lymphocytic inflammatory response (Schaumburg et al., 1974, Ko et al., 2000; Ewaleifoh et al, 2012) in wild-type and MAG knockout mice. […] The acrylamide treated MAG−/− mice developed more rapid and severe motor impairment. Most mice fell off the rod even during pretraining and had profound decline in the retention time on the Rotarod (FIG. 2B). There was a decrease in amplitudes of CMAP (FIG. 2.D). […] The neuromuscular junction morphology was normal. On gross observation, there was only mild gait unsteadiness. […] Thus, the RGD peptide was able to prevent significant axonal degeneration that is typically seen in MAG−/− mice treated with acrylamide.
To test that RGD peptides may prevent axonal degeneration in a murine model, acrylamide, a well characterized toxin causing axonal “dying back” or degeneration without lymphocytic inflammatory response (Schaumburg et al., 1974, Ko et al., 2000, Ewaleifoh et at, 2012), was administered to wild-type and MAG−/− mice. When MAG knockout mice at 6 weeks of age were exposed to acrylamide for 10 days, there was markedly impaired gait with marked sensory ataxia and spreading of the toes of the hind limbs. The acrylamide treated MAG−/− mice developed more rapid and severe motor impairment. Most mice fell off the rod even during pretraining and had profound decline in the retention time on the Rotarod (FIG. 2B). There was a 68% decrease in amplitudes of CMAP (FIG. 2.D).
The neuromuscular junction morphology was normal (FIG. 2E). On gross observation, there was only mild gait unsteadiness.

Data set [2] concerns postnatal (P4-5) dorsal root ganglion (DRG) and cerebrocortical neurons. Put plainly: Prevention of axonal/neuronal death in cultured neurons. The class given is cell-based. Particulars: in vitro; peptides in linear as well as cyclo forms; FIG. 1. Here is the method:
Several small RGD peptides containing RGD sequence were generated and their axonal protective effect was tested. The RGD peptides included RGDYK (SEQ ID NO:1), GRGDS (SEQ ID NO:2), FRGDLG (SEQ ID NO:4), FRGDSP (SEQ ID NO:9), IRGDSP (SEQ ID NO:15), RRGDQT (SEQ ID NO:5), KRGDNF (SEQ ID NO:6), PRGDLT (SEQ ID NO:7) in linear as well as cyclo forms.

In another data set the test system is β1-integrin receptor. Nature of the data set: Blocking of the peptide's axonal protection by integrin antagonists. In kind it is cell-based. The text has this:
The RGD motif is known to bind to the integrin receptor. The addition of the peptides of the present invention to primary DRG neuronal cultures induced rapid phosphorylation of neurofilament (NFH), change in NAD synthase nicotinamide mononucleotide adenylyltransferase (NMNAT) expression, and focal adhesion kinase (FAK), an integrin-linked kinase, at the tyrosine 397 residue (Y397), which are indicative of integrin binding to a ligand. Co-administration of echistatin or specific function-blocking antibody to β1-integrin abolished the axonal/neuronal protective ability of the peptide. See Example 1.
The protective effect of the […] peptides was dependent upon their ability to bind to β1-integrin receptor. […] Co-administration of specific function-blocking antibody to β1-integrin abolished the axonal protective ability of the GRGDSP (SEQ ID NO:3) peptide.

The subject of another data set is Trembler J mice. Put plainly: Trembler J mice, model of Charcot-Marie-Tooth type 1. In kind it is in vivo. Particulars: intravenous or intraperitoneal daily injection. The text has this: (§1) Similar findings were also seen in other murine models such as Trembler J mice, a murine model of Charcot-Marie-Tooth type 1, MOG-EAE mice, model of multiple sclerosis with significant axonal loss, and Streptozotocin-induced diabetic mouse model. […] Application of the RGD peptide allowed the diseased mice to have a normal or near normal phenotype similar to untreated wild-type animals.
(§2) Similar findings were also seen in other murine models including (1) Trembler J mice, a murine model of Charcot-Marie-Tooth type 1, (2) MOG-EAE mice, model of multiple sclerosis with significant axonal loss, and (3) Streptozotocin-induced diabetic mouse model. […] The RGD peptide allowed the diseased mice to have a normal or near normal phenotype similar to untreated wild-type animals.

The test system of another data set is MOG-EAE mice. Put plainly: MOG-EAE mice, model of multiple sclerosis. The class given is in vivo. As to conditions: intravenous or intraperitoneal daily injection.
From the text: as §1, §2

In data set [3] the test system is Streptozotocin-induced diabetic mouse model. Nature of the data set: Streptozotocin-induced diabetic mouse model. In kind it is in vivo. As to conditions: intravenous or intraperitoneal daily injection.
From the text: as §1, §2

Data set [4] deals with dorsal root ganglion (DRG) explants. Put plainly: Axonal protection of DRG explants exposed to vincristine. The class given is cell-based. Here is the method:
Panels A to D are representative images of dorsal root ganglion (DRG) explants after exposure to 50 nM vincristine at 0 and 60 hours. Explants in panels A and B were treated with 50 nM vincristine and 0.5 μg/ml peptide while those in panels C and D were treated with vincristine alone.
DRG explants were exposed to 50 nM vincristine. Explants in panels A and B were treated with 50 nM vincristine and 0.5 μg/ml RGD peptide while those in panels C and D were treated with vincristine alone. […] The cyclo-GRGDSP (SEQ ID NO:3) peptide potently promoted axonal survival in cell culture with EC50=0.5 μM (FIG. 1.E).

Data set [5] in a line: Bioavailability and bio-distribution by LC-QTOF mass spectrometer. The class given is in vivo, C57B1 mice. As to conditions: intraperitoneal 1 μg/g. Here is the method: In contrast, there was no decrease with the co-administration of the peptide (n=10 mice).
To test the bioavailability and bio-distribution of the RGD peptides in vivo, C57B1 mice were given intraperitoneal injection of 1 μg/g weight of cylco-GRGDSP (SEQ ID NO:3) in normal saline (1 mg/ml). The mice were sacrificed at 30, 60, 120, and 240 minutes. Blood, brain, skin, muscle, and tibial and sciatic nerves were collected. The presence of the peptide was detected using LC-QTOF mass spectrometer.

The subject of another data set is axons. Particulars: insults such as vincristine, acrylamide, inflammatory mediators; Nguyen et al., 2009; cited from earlier work.
[6] abbreviates: sampled 30, 60, 120, 240 minutes.

“cyclo-FRGDSP: cyclic RGD peptide of sequence FRGDSP (SEQ ID NO:9) (cyclic; Synthetic Peptide, Linear or Cyclo)”: in data set [1], the severe gait instability entry is listed as “largely prevented”; the “axonal swelling, beading and segmentation of Aβ fibers in the skin” value (shortened to “axonal swelling”) is “largely prevented”; the neuromuscular junction morphology result was “normal”; the “change in amplitudes of CMAP” value was “little to no change”.

Consider “RRGDQT: RGD peptide, amino acid sequence RRGDQT (Synthetic Peptide, Linear or Cyclo)”, for which, in data set [2], the “stabilize the axon and prevent axonal/neuronal death” value is “sufficient to stabilize the axon and to prevent axonal/neuronal death”.

On to echistatin [reference compound], for which the “effect of co-administered blocker on axonal/neuronal protective ability of the peptide” value with β1-integrin receptor (co-administration with RGD peptide) is recorded as “abolished”.

Turning to “cyclo-IRGDSP: cyclic RGD peptide of sequence IRGDSP (SEQ ID NO:15) (cyclic; Synthetic Peptide, Linear or Cyclo)”, in data set [1], the severe gait instability result was “largely prevented”; the “axonal swelling” value is reported as “largely prevented”; the neuromuscular junction morphology entry is listed as “normal”; the “change in amplitudes of CMAP” value was “little to no change”. Also, in the data set on Trembler J mice, the “axonal/neuronal degeneration and behavioral deficits” value was “almost completely abolished”. Besides, the “axonal/neuronal degeneration and behavioral deficits” value in the data set with MOG-EAE mice is reported as “almost completely abolished”. Besides, the “axonal/neuronal degeneration and behavioral deficits” value in data set [3] was “almost completely abolished”.

For “FRGDLG: RGD peptide, amino acid sequence FRGDLG (Synthetic Peptide, Linear or Cyclo)”, in [2], the “stabilize the axon and prevent axonal/neuronal death” value is “sufficient to stabilize the axon and to prevent axonal/neuronal death”.

Consider “PRGDLT: RGD peptide, amino acid sequence PRGDLT (Synthetic Peptide, Linear or Cyclo)”, for which the “stabilize the axon and prevent axonal/neuronal death” value in [2] was “sufficient to stabilize the axon and to prevent axonal/neuronal death”.

As for “KRGDNF: RGD peptide, amino acid sequence KRGDNF (Synthetic Peptide, Linear or Cyclo)”, the “stabilize the axon and prevent axonal/neuronal death” value in data set [2] was “sufficient to stabilize the axon and to prevent axonal/neuronal death”.

With “cyclo-FRGDLP: cyclic RGD peptide of sequence FRGDLP (SEQ ID NO:8) (cyclic; Synthetic Peptide, Linear or Cyclo)”, in data set [1], the severe gait instability result is reported as “largely prevented”; the “axonal swelling” value is on record as “largely prevented”; the neuromuscular junction morphology entry is recorded as “normal”; the “change in amplitudes of CMAP” value is listed as “little to no change”.

On to `N=C(N)NCCC[C@@H]1NC(=O)CNC(=O)[C@@H]2CCCN2C(=O)[C@H](CO)NC(=O)[C@H](CC(=O)O)NC(=O)CNC1=O` [cyclo-GRGDSP], for which the EC50 in data set [4] (DRG explants exposed to 50 nM vincristine, FIG. 1E, read-out: EC50, axonal survival in cell culture) turned out to be 500 nM. Further, the “neuronal death (TUNEL-positive cells)” value in [4] (associated with axonal protection, FIG. 1F) is “marked decreased in neuronal death”. Moreover, in data set [5] (all time points up to 4 hours, FIG. 2A), the “peptide detected in sciatic nerves” value is given as “detected in high concentration”. In [5] (setting [6]), the “peptide detected in plasma” value is given as “detected” and the “peptide levels in brain” value is on record as “only evident in the first hour”. Also, in data set [1], the severe gait instability result is “largely prevented”; the “axonal swelling” value is reported as “largely prevented”; the neuromuscular junction morphology result is given as “normal”; the “change in amplitudes of CMAP” value is listed as “little to no change”. Further, the “axonal/neuronal degeneration and behavioral deficits” value with Trembler J mice is recorded as “almost completely abolished”. Also, the “axonal/neuronal degeneration and behavioral deficits” value in the data set on MOG-EAE mice is “almost completely abolished”. In addition, in data set [3], the “axonal/neuronal degeneration and behavioral deficits” value is recorded as “almost completely abolished”.

For the molecule “FRGDSP: RGD peptide, amino acid sequence FRGDSP (Synthetic Peptide, Linear or Cyclo)”, the “stabilize the axon and prevent axonal/neuronal death” value in data set [2] was “sufficient to stabilize the axon and to prevent axonal/neuronal death”.

With “RGDYK: RGD peptide, amino acid sequence RGDYK (Synthetic Peptide, Linear or Cyclo)”, in data set [2], the “stabilize the axon and prevent axonal/neuronal death” value is “sufficient to stabilize the axon and to prevent axonal/neuronal death”.

As for “GRGDSP: RGD peptide, amino acid sequence GRGDSP”, in the data set on β1-integrin receptor (co-administration of specific function-blocking antibody to β1-integrin), the “axonal protective ability of the peptide” value is recorded as “abolished”.

For the molecule “GRGDS: RGD peptide, amino acid sequence GRGDS (Synthetic Peptide, Linear or Cyclo)”, the “stabilize the axon and prevent axonal/neuronal death” value in [2] was “sufficient to stabilize the axon and to prevent axonal/neuronal death”.

For “IRGDSP: RGD peptide, amino acid sequence IRGDSP (Synthetic Peptide, Linear or Cyclo)”, in data set [2], the “stabilize the axon and prevent axonal/neuronal death” value was “sufficient to stabilize the axon and to prevent axonal/neuronal death”.

B1: MAG: transmembrane glycoprotein containing five Ig-like domains; adhesion molecule of the immunoglobin superfamily (protein, UniProt P20916 20-626, looked up)
Myelin-associated glycoprotein: GHWGAWMPSSISAFEGTCVSIPCRFDFPDELRPAVVHGVWYFNSPYPKNYPPVVFKSRTQVVHESFQGRSRLLGDLGLRNCTLLLSNVSPELGGKYYFRGDLGGYNQYTFSEHSVLDIVNTPNIVVPPEVVAGTEVEVSCMVPDNCPELRPELSWLGHEGLGEPAVLGRLREDEGTWVQVSLLHFVPTREANGHRLGCQASFPNTTLQFEGYASMDVKYPPVIVEMNSSVEAIEGSHVSLLCGADSNPPPLLTWMRDGTVLREAVAESLLLELEEVTPAEDGVYACLAENAYGQDNRTVGLSVMYAPWKPTVNGTMVAVEGETVSILCSTQSNPDPILTIFKEKQILSTVIYESELQLELPAVSPEDDGEYWCVAENQYGQRATAFNLSVEFAPVLLLESHCAAARDTVQCLCVVKSNPEPSVAFELPSRNVTVNESEREFVYSERSGLVLTSILTLRGQAQAPPRVICTARNLYGAKSLELPFQGAHRLMWAKIGPVGAVVAFAILIAIVCYITQTRRKKNVTESPSFSAGDNPPVLFSSDFRISGAPEKYESERRLGSERRLLGLRGEPPELDLSYSHSDLGKRPTKDSYTLTEELAEYAEIRVK
Turning to B1, the “axonal survival / prevention of axonal degeneration caused by vincristine” value in the data set with axons is on record as “promotes axonal survival”.

Usually EC50 stands for the concentration at which the effect is half-maximal.

The values above are taken from US9555071B2, “Methods and compositions for the treatment of axonal and neuronal degeneration” (priority 2012, dated 2017).
